Experimental data: patent US20120010075A1 (priority 2009, published 2012)
Where two headings read alike, the source gives them in different places.

Key:
[1] = system: Leptosphaeria nodorum (LEPTNO); assay: In vitro fungitoxicity of hydrazones with and without copper towards Leptosphaeria nodorum (Example 26); format: cell-based; settings: 72 h at 25° C.; for inhibition of growth at 0.05 µg/mL: Parastagonospora nodorum, 72 h, copper-minus medium, read-out: LEPTNO % Inhn. Minus Copper Observed
Phytophthora infestans = format: in vivo, Phytophthora infestans on tomato; settings: applied 24 h before inoculation, assessed 7 days after inoculation
[2] = test compound Concn. 0.05 μg/mL
[3] = copper-plus medium (CuCl2 10 μM), test compound Concn. 0.05 μg/mL
[4] = hydrazone 50 ppm with 50 μM CuCl2.2H2O, tomato late blight
[5] = compound 0.05 μg/mL, copper-plus medium (CuCl2.2H2O)
[6] = hydrazone 50 ppm + 50 μM CuCl2.2H2O, tomato

COc1ccc(C(=O)N/N=C(\C)c2cc(C(F)(F)F)ccc2O)cc1 [Example 534]
inhibition of growth at 0.05 µg/mL [1, 2]: 5.1%
LEPTNO % Inhn. Plus Copper Observed [1, 3]: 95.7%
melting point: 228 to 231 °C
TLB % Control (Phytophthora infestans; [4]): 61.0%

O=C(N/N=C/c1c(O)cccc1Cl)c1cccc([N+](=O)[O-])c1 [Example 404]
inhibition of growth at 0.05 µg/mL [1, 2]: 0%
LEPTNO % Inhn. Plus Copper Observed [1, 3]: 94.9%
melting point: 269 to 270 °C
TLB % Control (Phytophthora infestans; [4]): 97.0%

O=C(N/N=C/c1cc(C(F)(F)F)cc(Cl)c1O)c1ccc(F)cc1 [Example 324]
inhibition of growth at 0.05 µg/mL [1, 2]: 2.3%
LEPTNO % Inhn. Plus Copper Observed [1, 3]: 96.3%
melting point: 200 to 202 °C
TLB % Control (Phytophthora infestans; [4]): 98.0%

COc1ccc(C(=O)N/N=C(\C)c2cccc([N+](=O)[O-])c2O)cc1 [Example 521]
inhibition of growth at 0.05 µg/mL [1, 2]: 5%
LEPTNO % Inhn. Plus Copper Observed [1, 3]: 95.9%
melting point: 204 to 212 °C
TLB % Control (Phytophthora infestans; [4]): 83.0%

C/C(=N\NC(=O)c1ccccc1)c1cc(C)ccc1O [Example 311]
inhibition of growth at 0.05 µg/mL [1, 2]: 3.3%
LEPTNO % Inhn. Plus Copper Observed [1, 3]: 98.3%
melting point: 197 to 199 °C
TLB % Control (Phytophthora infestans; [4]): 37.0%

O=C(N/N=C/c1cc(Cl)cc(Cl)c1O)c1ccc2ccccc2c1 [Example 92]
inhibition of growth at 0.05 µg/mL ([1]; compound 0.05 μg/mL): 1.9%
LEPTNO % Inhn. Plus Copper Observed [1, 5]: 98.2%
melting point: 215 to 217 °C
TLB % Control (Phytophthora infestans; [6]): 71.9%

C/C(=N\NC(=O)c1cccc(Oc2ccccc2)c1)c1ccccc1O [Example 47]
inhibition of growth at 0.05 µg/mL ([1]; compound 0.05 μg/mL): 0%
LEPTNO % Inhn. Plus Copper Observed [1, 5]: 97.1%
melting point: 178 to 180 °C
TLB % Control (Phytophthora infestans; [6]): 33.0%

C/C(=N\NC(=O)c1ccc(Cl)cc1)c1cccc([N+](=O)[O-])c1O [Example 274]
inhibition of growth at 0.05 µg/mL ([1]; compound 0.05 μg/mL): 0%
LEPTNO % Inhn. Plus Copper Observed [1, 5]: 96.3%
melting point: 241 to 251 °C
TLB % Control (Phytophthora infestans; [6]): 89.0%

COc1ccc(O)c(/C(C)=N/NC(=O)c2ccccc2)c1 [Example 261]
inhibition of growth at 0.05 µg/mL ([1]; compound 0.05 μg/mL): 2.7%
LEPTNO % Inhn. Plus Copper Observed [1, 5]: 97.9%
melting point: 150 to 152 °C
TLB % Control (Phytophthora infestans; [6]): 10.0%

O=C(N/N=C/c1ccc(Cl)cc1O)c1ccc([N+](=O)[O-])cc1 [Example 394]
inhibition of growth at 0.05 µg/mL [1, 2]: 8%
LEPTNO % Inhn. Plus Copper Observed [1, 3]: 95.9%
melting point: 278 to 281 °C
TLB % Control (Phytophthora infestans; [4]): 71.0%

C/C(=N\NC(=O)c1ccccc1C)c1cccc([N+](=O)[O-])c1O [Example 269]
inhibition of growth at 0.05 µg/mL ([1]; compound 0.05 μg/mL): 0%
LEPTNO % Inhn. Plus Copper Observed [1, 5]: 98.8%
melting point: 193 to 196 °C
TLB % Control (Phytophthora infestans; [6]): 21.0%

O=C(N/N=C/c1cc(C(F)(F)F)ccc1O)c1cccc(Cl)c1 [Example 439]
inhibition of growth at 0.05 µg/mL [1, 2]: 0%
LEPTNO % Inhn. Plus Copper Observed [1, 3]: 100.0%
melting point: 187 to 197 °C
TLB % Control (Phytophthora infestans; [4]): 96.0%

O=C(N/N=C/c1ccc(Cl)c(Cl)c1O)c1ccccc1C(F)(F)F [Example 363]
inhibition of growth at 0.05 µg/mL [1, 2]: 4.3%
LEPTNO % Inhn. Plus Copper Observed [1, 3]: 94.7%
melting point: 209 to 213 °C
TLB % Control (Phytophthora infestans; [4]): 92.0%

C/C(=N\NC(=O)c1ccc(Cl)cc1)c1cccc(Cl)c1O [Example 498]
inhibition of growth at 0.05 µg/mL [1, 2]: 0%
LEPTNO % Inhn. Plus Copper Observed [1, 3]: 97.5%
melting point: 208 to 209 °C
TLB % Control (Phytophthora infestans; [4]): 85.0%

Cc1cc(C)cc(C(=O)N/N=C/c2cc([N+](=O)[O-])cc(Br)c2O)c1 [Example 208]
inhibition of growth at 0.05 µg/mL ([1]; compound 0.05 μg/mL): 5.4%
LEPTNO % Inhn. Plus Copper Observed [1, 5]: 97.0%
melting point: 283 to 300 °C
TLB % Control (Phytophthora infestans; [6]): 32.8%

Cc1cc(C)cc(C(=O)N/N=C/c2cc(Cl)cc(Br)c2O)c1 [Example 168]
inhibition of growth at 0.05 µg/mL ([1]; compound 0.05 μg/mL): 13.3%
LEPTNO % Inhn. Plus Copper Observed [1, 5]: 97.7%
melting point: 223 to 226 °C
TLB % Control (Phytophthora infestans; [6]): 59.6%

C/C(=N\NC(=O)c1ccccc1O)c1ccc(Cl)cc1O [Example 463]
inhibition of growth at 0.05 µg/mL [1, 2]: 5.1%
LEPTNO % Inhn. Plus Copper Observed [1, 3]: 96.3%
melting point: 311 to 312 °C
TLB % Control (Phytophthora infestans; [4]): 61.0%

O=C(N/N=C/c1cc(C(F)(F)F)cc(Cl)c1O)c1ccccc1C(F)(F)F [Example 330]
inhibition of growth at 0.05 µg/mL [1, 2]: 5.3%
LEPTNO % Inhn. Plus Copper Observed [1, 3]: 92.9%
melting point: 169 to 171 °C
TLB % Control (Phytophthora infestans; [4]): 99.0%

O=C(N/N=C/c1c(O)cc(Cl)cc1Cl)c1ccccc1 [Example 242]
inhibition of growth at 0.05 µg/mL ([1]; compound 0.05 μg/mL): 6.9%
LEPTNO % Inhn. Plus Copper Observed [1, 5]: 98.0%
melting point: 273 to 274 °C
TLB % Control (Phytophthora infestans; [6]): 78.0%

C/C(=N\NC(=O)c1ccccc1O)c1cccc(Cl)c1O [Example 503]
inhibition of growth at 0.05 µg/mL [1, 2]: 5.2%
LEPTNO % Inhn. Plus Copper Observed [1, 3]: 97.0%
melting point: 283 to 287 °C
TLB % Control (Phytophthora infestans; [4]): 66.0%

COc1ccc(C(=O)N/N=C(\C)c2c(O)cc(OC)cc2OC)cc1 [Example 569]
inhibition of growth at 0.05 µg/mL [1, 2]: 6.1%
LEPTNO % Inhn. Plus Copper Observed [1, 3]: 15.8%
melting point: 143 to 146 °C
TLB % Control (Phytophthora infestans; [4]): 70.0%

O=C(N/N=C/c1ccc(Cl)c(Cl)c1O)c1cccc([N+](=O)[O-])c1 [Example 360]
inhibition of growth at 0.05 µg/mL [1, 2]: 17.6%
LEPTNO % Inhn. Plus Copper Observed [1, 3]: 96.9%
melting point: 269 to 271 °C
TLB % Control (Phytophthora infestans; [4]): 97.0%

C/C(=N\NC(=O)c1cccc(C)c1)c1cc(Br)cc(Br)c1O [Example 541]
inhibition of growth at 0.05 µg/mL [1, 2]: 0%
LEPTNO % Inhn. Plus Copper Observed [1, 3]: 97.5%
melting point: 236 to 238 °C
TLB % Control (Phytophthora infestans; [4]): 93.0%

COc1ccc(/C(C)=N/NC(=O)c2ccc(Cl)cc2)c(O)c1 [Example 286]
inhibition of growth at 0.05 µg/mL ([1]; compound 0.05 μg/mL): 2.3%
LEPTNO % Inhn. Plus Copper Observed [1, 5]: 98.4%
melting point: 227 to 229 °C
TLB % Control (Phytophthora infestans; [6]): 75.0%

Cc1ccc(C(=O)N/N=C/c2c(Cl)ccc(Cl)c2O)c(O)c1 [Example 374]
inhibition of growth at 0.05 µg/mL [1, 2]: 11.1%
LEPTNO % Inhn. Plus Copper Observed [1, 3]: 98.2%
melting point: 248 to 254 °C
TLB % Control (Phytophthora infestans; [4]): 98.0%

O=C(N/N=C/c1c(O)cccc1Cl)c1ccccc1O [Example 406]
inhibition of growth at 0.05 µg/mL [1, 2]: 6.7%
LEPTNO % Inhn. Plus Copper Observed [1, 3]: 96.1%
melting point: 277 to 280 °C
TLB % Control (Phytophthora infestans; [4]): 98.0%

O=C(N/N=C/c1cc(C(F)(F)F)cc(C(F)(F)F)c1O)c1ccccc1 [Example 295]
inhibition of growth at 0.05 µg/mL ([1]; compound 0.05 μg/mL): 5.8%
LEPTNO % Inhn. Plus Copper Observed [1, 5]: 98.0%
melting point: 232 to 234 °C
TLB % Control (Phytophthora infestans; [6]): 89.8%

C/C(=N\NC(=O)c1ccc(C(F)(F)F)cc1)c1cc(Br)ccc1O [Example 518]
inhibition of growth at 0.05 µg/mL [1, 2]: 24.2%
LEPTNO % Inhn. Plus Copper Observed [1, 3]: 97.4%
melting point: 272 to 280 °C
TLB % Control (Phytophthora infestans; [4]): 58.0%

COc1ccc(/C(C)=N/NC(=O)c2ccccc2Cl)c(O)c1 [Example 284]
inhibition of growth at 0.05 µg/mL ([1]; compound 0.05 μg/mL): 0%
LEPTNO % Inhn. Plus Copper Observed [1, 5]: 97.1%
melting point: 174 to 175 °C
TLB % Control (Phytophthora infestans; [6]): 74.0%

C/C(=N\NC(=O)c1cccc(C)c1)c1cc(C(F)(F)F)ccc1O [Example 529]
inhibition of growth at 0.05 µg/mL [1, 2]: 15.3%
LEPTNO % Inhn. Plus Copper Observed [1, 3]: 97.7%
melting point: 235 to 238 °C
TLB % Control (Phytophthora infestans; [4]): 46.0%

C/C(=N\NC(=O)c1ccc(Cl)cc1)c1ccc(Cl)cc1O [Example 257]
inhibition of growth at 0.05 µg/mL ([1]; compound 0.05 μg/mL): 6%
LEPTNO % Inhn. Plus Copper Observed [1, 5]: 94.4%
melting point: 246 to 247 °C
TLB % Control (Phytophthora infestans; [6]): 21.0%

COc1ccc(O)c(/C(C)=N/NC(=O)c2ccccc2Cl)c1 [Example 265]
inhibition of growth at 0.05 µg/mL ([1]; compound 0.05 μg/mL): 0%
LEPTNO % Inhn. Plus Copper Observed [1, 5]: 98.1%
melting point: 170 to 184 °C
TLB % Control (Phytophthora infestans; [6]): 15.0%

Cc1ccc(C(=O)N/N=C/c2c(C(F)(F)F)ccc(Cl)c2O)c(O)c1 [Example 457]
inhibition of growth at 0.05 µg/mL [1, 2]: 6.7%
LEPTNO % Inhn. Plus Copper Observed [1, 3]: 100.0%
melting point: 258 to 260 °C
TLB % Control (Phytophthora infestans; [4]): 100.0%

O=C(N/N=C/c1cc(Cl)cc(Br)c1O)c1cccc(F)c1 [Example 414]
inhibition of growth at 0.05 µg/mL [1, 2]: 14.6%
LEPTNO % Inhn. Plus Copper Observed [1, 3]: 97.9%
melting point: 209 to 215 °C
TLB % Control (Phytophthora infestans; [4]): 90.0%

C/C(=N\NC(=O)c1ccc(C(F)(F)F)cc1)c1cccc([N+](=O)[O-])c1O [Example 523]
inhibition of growth at 0.05 µg/mL [1, 2]: 7%
LEPTNO % Inhn. Plus Copper Observed [1, 3]: 97.7%
melting point: 267 to 278 °C
TLB % Control (Phytophthora infestans; [4]): 92.0%

O=C(N/N=C/c1c(O)ccc(Cl)c1Cl)c1ccccc1 [Example 241]
inhibition of growth at 0.05 µg/mL ([1]; compound 0.05 μg/mL): 0.5%
LEPTNO % Inhn. Plus Copper Observed [1, 5]: 97.0%
melting point: 273 to 274 °C
TLB % Control (Phytophthora infestans; [6]): 62.7%

COc1cc(O)c(/C(C)=N/NC(=O)c2ccc(C)cc2)c(OC)c1 [Example 566]
inhibition of growth at 0.05 µg/mL [1, 2]: 6.8%
LEPTNO % Inhn. Plus Copper Observed [1, 3]: 95.9%
melting point: 177 to 184 °C
TLB % Control (Phytophthora infestans; [4]): 70.0%

C/C(=N\NC(=O)c1ccccc1)c1ccc(Cl)cc1O [Example 251]
inhibition of growth at 0.05 µg/mL ([1]; compound 0.05 μg/mL): 3.5%
LEPTNO % Inhn. Plus Copper Observed [1, 5]: 98.1%
melting point: 236 to 237 °C
TLB % Control (Phytophthora infestans; [6]): 33.0%

C/C(=N\NC(=O)Cc1ccc(F)cc1)c1cc(Cl)cc(Cl)c1O [Example 17]
inhibition of growth at 0.05 µg/mL ([1]; compound 0.05 μg/mL): 9.4%
LEPTNO % Inhn. Plus Copper Observed [1, 5]: 95.9%
melting point: 209 to 213 °C
TLB % Control (Phytophthora infestans; [6]): 69.0%

COc1ccc(O)c(/C(C)=N/NC(=O)c2ccc(C)cc2)c1 [Example 264]
inhibition of growth at 0.05 µg/mL ([1]; compound 0.05 μg/mL): 6%
LEPTNO % Inhn. Plus Copper Observed [1, 5]: 98.4%
melting point: 159 to 162 °C
TLB % Control (Phytophthora infestans; [6]): 21.0%
